The results in this text go back to PubChem BioAssay (NCI).

Test systems include NCI-H23 lung; NCI-H522 lung; OVCAR-5 ovarian; SK-MEL-5 melanoma; SF-539 CNS; CCRF-CEM leukemia; CAKI-1 renal; HCT-15 colon; U251 CNS; SNB-75 CNS.
Common to all, as to assay: NCI tumour cell line growth inhibition, 48 h

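Exposure lasted 48 hours, with cells grown in 96-well plates and compounds tested at five concentrations. GI50 = concentration required for 50% inhibition of growth. TGI: concentration producing complete growth inhibition.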 Some results are limits rather than exact numbers.

With `COc1cc[nH]c1/C=C1\C(=O)Nc2ccc(F)c(C#CC3(O)CCNCC3)c21`, the GI50 in the experiment with NCI-H23 lung was 0.161 µM; in the experiment with NCI-H522 lung it was 0.22 µM; in the experiment with OVCAR-5 ovarian it was 0.275 µM; in the experiment with SK-MEL-5 melanoma, 0.24 µM; in the experiment with SF-539 CNS it was 0.106 µM; in the experiment with CCRF-CEM leukemia, 0.0779 µM. For the same molecule, the GI50 was 0.0181 µM with CAKI-1 renal, 0.139 µM in the experiment on HCT-15 colon, 0.0736 µM in the experiment with U251 CNS and 0.014 µM in the experiment on SNB-75 CNS. The TGI with NCI-H23 lung is 1.14 µM; in the experiment on NCI-H522 lung, 0.715 µM; in the experiment on OVCAR-5 ovarian, 2.37 µM; with SK-MEL-5 melanoma, 0.968 µM; in the experiment on SF-539 CNS it was 0.426 µM; in the experiment with CCRF-CEM leukemia it was 0.836 µM. The TGI turned out to be 0.472 µM in the experiment with CAKI-1 renal, 1.93 µM in the experiment on HCT-15 colon, 0.984 µM in the experiment on U251 CNS and 0.469 µM with SNB-75 CNS.
In the case of `O=C(O)CCNC1CCCCC1`, the GI50 with NCI-H23 lung, in the experiment with NCI-H522 lung, in the experiment with OVCAR-5 ovarian, in the experiment on SK-MEL-5 melanoma, in the experiment with SF-539 CNS and with CCRF-CEM leukemia was greater than 100 µM throughout. Further, the GI50 with CAKI-1 renal, with HCT-15 colon, in the experiment on U251 CNS and with SNB-75 CNS was greater than 100 µM throughout. The TGI with NCI-H23 lung, in the experiment on NCI-H522 lung, in the experiment on OVCAR-5 ovarian, in the experiment on SK-MEL-5 melanoma, in the experiment on SF-539 CNS and in the experiment with CCRF-CEM leukemia was greater than 100 µM throughout. Further, the TGI in the experiment with CAKI-1 renal, in the experiment with HCT-15 colon, in the experiment on U251 CNS and in the experiment with SNB-75 CNS was greater than 100 µM each time.
Consider `CC/C=C\C[C@@H](O)C/C=C1/C(=O)C=C[C@H]1C/C=C\CCCC(=O)OC`, for which the GI50 in the experiment on NCI-H23 lung was 2.4 µM; in the experiment on NCI-H522 lung it was 1.65 µM; in the experiment with OVCAR-5 ovarian, 3.35 µM; in the experiment with SK-MEL-5 melanoma, 1.77 µM; in the experiment with SF-539 CNS, 3.22 µM; in the experiment with CCRF-CEM leukemia, 0.461 µM. Besides, the GI50 with CAKI-1 renal was 3.57 µM; with HCT-15 colon, 2.49 µM; in the experiment with U251 CNS, 3.18 µM; with SNB-75 CNS, 6.17 µM. Also, the TGI in the experiment on NCI-H23 lung was 6.63 µM; with NCI-H522 lung, 3.97 µM; in the experiment on OVCAR-5 ovarian it was 12.1 µM; in the experiment with SK-MEL-5 melanoma, 3.25 µM; in the experiment with SF-539 CNS, 11.9 µM; with CCRF-CEM leukemia it was 4.36 µM. Moreover, the TGI in the experiment with CAKI-1 renal amounted to 13.5 µM; in the experiment with HCT-15 colon it was 7.47 µM; in the experiment with U251 CNS, 10.5 µM; in the experiment with SNB-75 CNS, 19.6 µM.
For the molecule `COCCCNC(=O)C1C(=O)C(=O)N(CCCOC)C1=O` (stereo not given), the TGI with NCI-H23 lung, in the experiment on NCI-H522 lung, in the experiment with OVCAR-5 ovarian, with SK-MEL-5 melanoma, in the experiment on SF-539 CNS and in the experiment with CCRF-CEM leukemia was greater than 100 µM each time. The TGI with CAKI-1 renal, in the experiment with HCT-15 colon, in the experiment with U251 CNS and with SNB-75 CNS was greater than 100 µM throughout.
Turning to `O=C(CCc1nnc2sc(-c3ccc(Cl)cc3Cl)nn12)c1nc2ccccc2[nH]1`, the GI50 is 0.694 µM with NCI-H23 lung; 0.755 µM in the experiment with NCI-H522 lung; 1.96 µM in the experiment with OVCAR-5 ovarian; 1.26 µM in the experiment on SK-MEL-5 melanoma; 1.98 µM with SF-539 CNS; 0.265 µM in the experiment with CCRF-CEM leukemia. Further, the GI50 was 2.22 µM with CAKI-1 renal, 0.452 µM in the experiment with HCT-15 colon, 0.932 µM in the experiment with U251 CNS and 1.48 µM with SNB-75 CNS. Further, the TGI amounted to 3 µM in the experiment on NCI-H23 lung; 2.18 µM in the experiment with NCI-H522 lung; 4.23 µM in the experiment with OVCAR-5 ovarian; 2.51 µM with SK-MEL-5 melanoma; 4.63 µM in the experiment on SF-539 CNS; 0.974 µM with CCRF-CEM leukemia. The TGI in the experiment on CAKI-1 renal amounted to 5.45 µM; with HCT-15 colon it was 2.77 µM; with U251 CNS it was 2.26 µM; in the experiment on SNB-75 CNS, 3.53 µM.
For `NC12CC3CC(C1)CC(C(=O)O)(C3)C2`, the TGI in the experiment on NCI-H23 lung, in the experiment with NCI-H522 lung, in the experiment on OVCAR-5 ovarian, with SK-MEL-5 melanoma, in the experiment on SF-539 CNS and with CCRF-CEM leukemia was greater than 100 µM throughout. Moreover, the TGI in the experiment with CAKI-1 renal, with HCT-15 colon, in the experiment on U251 CNS and with SNB-75 CNS was greater than 100 µM throughout.
For `Nc1nc2c(nnn2C2CC(O)C(CO)O2)c(=O)[nH]1` (stereo not given), the GI50 is 4.61 µM in the experiment on NCI-H23 lung; 3.81 µM with NCI-H522 lung; 26.2 µM in the experiment on OVCAR-5 ovarian; 14.7 µM in the experiment on SK-MEL-5 melanoma; 3.12 µM with SF-539 CNS; 2.39 µM in the experiment on CCRF-CEM leukemia. Also, the GI50 in the experiment on CAKI-1 renal is 2.3 µM; in the experiment with HCT-15 colon, 3.65 µM; with U251 CNS it was 9.66 µM; with SNB-75 CNS it was 7.59 µM. Also, the TGI was greater than 100 µM with NCI-H23 lung; greater than 100 µM in the experiment on NCI-H522 lung; greater than 100 µM in the experiment on OVCAR-5 ovarian; greater than 89 µM in the experiment with SK-MEL-5 melanoma; greater than 41 µM in the experiment on SF-539 CNS; greater than 100 µM with CCRF-CEM leukemia. The TGI in the experiment with CAKI-1 renal, in the experiment on HCT-15 colon, with U251 CNS and in the experiment with SNB-75 CNS was greater than 100 µM throughout.
`CCOC1Oc2ccc(C)cc2C(=O)/C1=C\Nc1ccc(C(N)=O)cc1` (stereo not given): the GI50 with NCI-H23 lung is 17.4 µM; in the experiment on NCI-H522 lung it was 20.8 µM; in the experiment on OVCAR-5 ovarian it was 22 µM; in the experiment on SK-MEL-5 melanoma, 13.8 µM; with SF-539 CNS, 18.4 µM; in the experiment on CCRF-CEM leukemia, 20.3 µM. For the same molecule, the GI50 is 20.6 µM with CAKI-1 renal, 11.4 µM with HCT-15 colon, 13.2 µM with U251 CNS and 44.5 µM in the experiment with SNB-75 CNS. Besides, the TGI in the experiment with NCI-H23 lung came to 38.2 µM; in the experiment with NCI-H522 lung, 47.3 µM; in the experiment with OVCAR-5 ovarian, 47.1 µM; in the experiment on SK-MEL-5 melanoma, 30.2 µM; with SF-539 CNS, 53.2 µM; with CCRF-CEM leukemia it was 65.3 µM. The TGI was 44.8 µM with CAKI-1 renal, 30.6 µM in the experiment with HCT-15 colon, 34.2 µM in the experiment on U251 CNS and greater than 100 µM with SNB-75 CNS.
As for `N#C/C(=C\c1ccc2ccccc2c1)c1ccccc1`, the TGI is greater than 100 µM in the experiment with NCI-H23 lung; 29.6 µM in the experiment on NCI-H522 lung; greater than 100 µM in the experiment with OVCAR-5 ovarian; 66.5 µM with SK-MEL-5 melanoma; 36.8 µM in the experiment on SF-539 CNS; 78.1 µM in the experiment with CCRF-CEM leukemia. The TGI was 50 µM in the experiment with CAKI-1 renal, greater than 100 µM with HCT-15 colon, 57.1 µM in the experiment with U251 CNS and 48.6 µM in the experiment on SNB-75 CNS.
